Reference: PMC8840081, “Phenylalanine-Based AMPA Receptor Antagonist as the Anticonvulsant Agent with Neuroprotective Activity—In Vitro and In Vivo Studies” (Molecules, 2022)

Tests used:
[1] = target: T1, Human MAO-B (Homo sapiens, UniProt P27338); experiment: MAO-B inhibition, Amplex Red Monoamine Oxidase kit; assay type: biochemical
T1 construct: purchased Merck KGaA (Darmstadt, Germany)
T1 sequence (P27338 1-520): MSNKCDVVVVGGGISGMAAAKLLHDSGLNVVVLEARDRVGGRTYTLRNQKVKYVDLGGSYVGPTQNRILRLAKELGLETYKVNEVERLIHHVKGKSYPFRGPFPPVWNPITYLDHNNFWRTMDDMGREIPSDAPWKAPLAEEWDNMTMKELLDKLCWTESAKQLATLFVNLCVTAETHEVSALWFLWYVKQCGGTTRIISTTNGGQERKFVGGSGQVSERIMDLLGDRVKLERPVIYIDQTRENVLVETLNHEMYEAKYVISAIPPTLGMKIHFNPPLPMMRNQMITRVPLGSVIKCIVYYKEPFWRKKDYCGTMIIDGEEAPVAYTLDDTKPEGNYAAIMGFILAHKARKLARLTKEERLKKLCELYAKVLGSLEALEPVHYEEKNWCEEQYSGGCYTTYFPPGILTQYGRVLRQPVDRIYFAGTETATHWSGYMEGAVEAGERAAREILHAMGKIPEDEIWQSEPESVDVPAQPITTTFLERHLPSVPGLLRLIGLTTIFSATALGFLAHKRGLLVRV
Experimental: Human MAO-B was purchased from Merck KGaA (Darmstadt, Germany). The activity of compound 1 and 8 was measured in the presence of p-tyramine (200 μM). […] Firstly, inhibitors’ activity was measured in a concentration of 1 μM. […] For compounds that inhibited the enzyme by more than 50% further studies were conducted to obtain IC50 from concentration–response curves. All calculations were made in Microsoft Excel and GraphPadPrism software. All experiments were performed in duplicate and data are expressed as mean ± SEM.

[2] = test system: IMR-32 neuroblastoma cells; experiment: cell viability, MTS assay; assay type: cell-based, human; details: IMR-32, 24 h incubation, 1–100 µM
Experimental: (§1) All cell culture protocols and assay conditions were applied as we reported previously. SH-SY5Y (ATCC® CRL-2266™) cell line was purchased from ATCC (Manassas, VA, USA). IMR-32 (ATCC® CCL-127™) cell line was kindly provided by the Department of Oncogenomics, Academisch Medisch Centrum, Amsterdam, Holland. Before each test SH-SY5Y or IMR-32 cells were seeded in 96-well plates with transparent bottom at a concentration of 2.5 × 10^4 cells/well in 100 μL of respective cell culture medium and cultured for 24 h to reach 70% confluence. • Cell Viability
(§2) The CellTiter 96® AQueous Non-Radioactive Cell Proliferation Assay was purchased from Promega (Madison, WI, USA). After 24 h of cells incubation with compound 1 or 8 in the concentrations range 1–100 µM the MTS-based labeling mixture was added to each well and cells were incubated under the same conditions for 2–3 h. The absorbance was measured using a microplate reader EnSpire (PerkinElmer, Waltham, MA, USA) at 490 nm. All measurements were performed in triplicate and results are shown as mean ± SD. • Lactate Dehydrogenase Test

[3] = test system: SH-SY5Y neuroblastoma cells; experiment: cell viability, MTS assay; assay type: cell-based, human; details: 24 h incubation, 1–100 µM
Experimental: as §1, §2

[4] = test system: native AMPA receptors; details: cited from earlier work
[5] = test system: heat hyperalgesia in diabetic mice; experiment: diabetic (STZ) neuropathic pain model, hot plate test; assay type: in vivo; details: 30 mg/kg i.p.
Experimental: Behavioral experiments were carried out in male Albino Swiss (CD-1) mice weighing 18–22 g. The mice were kept in cages, in groups of 10 animals. They had free access to food and water before experiments, and were maintained at room temperature 22–24 °C, under 12:12 (light/dark) cycle. For the assays the animals were selected randomly. After the experiments the animals were euthanized by cervical dislocation. Experimental procedures for in vivo tests were approved by the Local Ethics Committee of the Jagiellonian University in Krakow (Approval No. 33/2018; release date: 1.02.2018) and the treatment of animals was performed in full accordance with ethical standards laid down in respective Polish and EU regulations (Directive 2010/63/EU).
Oxaliplatin was purchased from Activate Scientific GmbH (Prien, Germany). PTZ and STZ were provided by Merck KGaA (Darmstadt, Germany). […]
To induce type I diabetes and diabetic neuropathic pain, mice were administered STZ, an alkylating antitumor drug that destroys insulin-secreting islet cells. […] Blood glucose levels were measured 1 day before (referred to as ‘day 0′) and repeatedly 1, 2 and 3 weeks after STZ injection using a blood glucose monitoring system (AccuChek Active, Roche, France). […]
The effect of 1 on heat hyperalgesia was assessed using the hot plate test. […]

[6] = test system: SH-SY5Y cells; experiment: ROS assay (DCFH-DA), H2O2-induced ROS accumulation; assay type: cell-based, human; details: compound 50 µM, 500 µM H2O2, 3 h
Experimental: as §1
During this assay SH-SY5Y cells were preincubated first for 1 h with 250 μM solution of DCFH-DA (Sigma-Aldrich, Inc., St. Louis, MO, USA) in HBSS buffer. After DCFH-DA was removed, cells were washed with HBSS and incubated next for 1 h with 50 μM of compound 1 or 8. Next, the H2O2 was added at final concentration 500 μM. After 3 h of incubation, the fluorescence was measured using a microplate reader EnSpire (PerkinElmer, Waltham, MA, USA) with an excitation wavelength of 486 nm and emission wavelength of 530 nm. All measurements were performed in triplicate and results are shown as mean ± SD.

SMILES: NC(Cc1cc(-c2cc(O)ccc2O)c(Cl)c([N+](=O)[O-])c1)C(=O)O (stereo not drawn) [Compound 1]
- maximum MAO-B inhibition attained ([1]; dose-dependent curve): 52%
- IC50 ([1]; p-tyramine 200 μM): 278 ± 29 nM
- inhibition at 1 µM ([1]; read-out: MAO-B inhibition, screening): > 50%
- cell viability [2]: no influence on cell viability
- cell viability [3]: no influence on cell viability
- selectivity over NMDA and KA receptors [4]: high selectivity
- Ki ([4]; native AMPA receptors, rat brain membranes, mean of three experiments, read-out: [3H]AMPA Ki): 920 nM
- antihyperalgesic activity, hot plate test (latency to pain reaction) [5]: antihyperalgesic activity was not observed
- intracellular ROS level [6]: statistically significant decrease
